According to US20110293745A1, “AURORA KINASE INHIBITORS” (SUNESIS PHARMACEUTICALS, INC., priority 2008, published 2011):
Read-outs that look alike come from different tables or passages of the source.

Experiments:
[1] = Humidity-controlled form conversion; type: physicochemical
Procedure: The samples were monitored each week for a total duration of five weeks. Each sample was tested by XRPD, DSC, TGA, and Karl Fisher analysis.

[2] = Dynamic Vapor Sorption (DVS); type: physicochemical; details: for DVS Result (hygroscopicity): Dynamic Vapor Sorption of crystalline form of Compound 1
Procedure: DVS experiments were carried out on all available forms by first drying the sample at 0% RH and 25° C. until an equilibrium weight was reached or a maximum of four hours. The sample was then subjected to an isothermal (25° C.) adsorption scan from 10 to 90% RH in steps of 10% RH. The sample was allowed to equilibrate to an asymptotic weight at each point for a maximum of four hours. Following adsorption, a desorption scan from […] to 0% RH (at 25° C.) was run in steps of −10% RH again allowing a maximum of four hours for equilibration to an asymptotic weight. The sample was then dried for two hours at 80° C. and the resulting solid analyzed by XRPD.

[3] = Reslurry of Form A in 20 solvents; type: physicochemical; details: THF, EtOAc, MeCN, acetone, MEK, IPA, dioxane, MTBE, IPAc, heptane, CH2Cl2, toluene; room temperature, two weeks
Procedure: Various amounts of solvents were added to each vial to form slurries which were allowed to stir at room temperature for two weeks. The slurries were then filtered with the help of a gentle nitrogen flow. The samples were further dried in vacuo at room temperature for two hours, except the sample from formamide which was dried in vacuo for about 20 hours.
After two weeks, the samples were filtered and then analyzed by XRPD, DSC, and TGA. Three new forms were found from the slurry studies. These Forms I, K, and L were generated from AcOH, NMP, and DMF, respectively. The slurry samples from other solvents afforded results consistent with the single solvent recrystallizations. […] Forms D, E, G, and H were generated from reslurry experiments in DMA, formamide, methanol, and ethanol, respectively.

[4] = Procedure: The solvents were chosen based on differences in polarity and functionality and on their classification according to the International Conference on Harmonization (ICH), with preference given to class II and class III solvents. After each addition of solvent, the vials were visually inspected to assess dissolution and further heated to 55° C. to ensure dissolution.
[5] = tested on: HCT 116 p53+/+; assay: In vitro combination, HCS cell count assay (CI50); type: cell-based, human; details: HCT 116 p53+/+ and p53−/−; dependent on ratios or p53 status
Procedure: A combination index compares the concentration of compounds dosed in combination required for a given fractional effect to the concentration of single agent compound required to give the same fractional affect. In this application, the fractional effect is EC50.
The equation above represents the theoretical additive response for two mutually exclusive drugs, and takes into consideration the ratio at which the two compounds are dosed. […].
[…]. High content cell imaging and a cell proliferation assay were used to measure the anti-proliferative effects of the compounds.
HCT 116 cells transfected with p53 RNAi or a control vector were cultured in DMEM, 10% FBS, and 1× antibiotic/antimycotic. Cells were plated in growth medium in black/clear Falcon® 384-well plates. Cells were treated to assess the effects of p53 status, drug dose ratios, and dose schedules. […]. […] All procedures were performed by a Tecan robotic platform.
After overnight growth, cells were treated with compound for a total of 72 hours and incubated at 37° C., 5% CO2. Cells were fixed in 4% formaldehyde and stained with 1:4000 dilution of 10 mg/mL Hoechst 33342. HCS images were captured and data analyzed using the Target Activation application, object count per field parameter, on the ArrayScan VTI instrument (Cellomics, Inc.).

[6] = tested on: HCT 116 p53−/− (p53 RNAi); assay: In vitro combination, HCS cell count assay (CI50); type: cell-based, human; details: p53−/− HCT 116 cells; high doses of vincristine
Procedure: Cells were plated in growth medium in black/clear Falcon® 384-well plates. Cells were treated to assess the effects of p53 status, drug dose ratios, and dose schedules. […] All procedures were performed by a Tecan robotic platform.

CS(=O)(=O)O.O=C(Nc1cccc(Cl)c1)Nc1ncc(CCNc2ncnc3ccsc23)s1 [A]
KF ([1]; 0% RH, week 1): 0.17 Wt % H2O
TGA Loss ([1]; 0% RH, week 1): 0.0 Wt %
KF ([1]; 0% RH, week 2): <0.1 Wt % H2O
TGA Loss ([1]; 0% RH, week 2): 0.0 Wt %
KF ([1]; 0% RH, week 3): 0.11 Wt % H2O
TGA Loss ([1]; 0% RH, week 3): 0.0 Wt %
KF ([1]; 0% RH, week 4): <0.1 Wt % H2O
TGA Loss ([1]; 0% RH, week 4): 0.0 Wt %
KF ([1]; 0% RH, week 5): 0.1 Wt % H2O
TGA Loss ([1]; 0% RH, week 5): 0.0 Wt %
KF ([1]; 20% RH, week 1): 0.16 Wt % H2O
TGA Loss ([1]; 20% RH, week 1): 0.0 Wt %
KF ([1]; 20% RH, week 2): 0.12 Wt % H2O
TGA Loss ([1]; 20% RH, week 2): 0.0 Wt %
KF ([1]; 20% RH, week 3): 0.11 Wt % H2O
TGA Loss ([1]; 20% RH, week 3): 0.0 Wt %
KF ([1]; 20% RH, week 4): <0.1 Wt % H2O
TGA Loss ([1]; 20% RH, week 4): 0.0 Wt %
KF ([1]; 20% RH, week 5): 0.2 Wt % H2O
TGA Loss ([1]; 20% RH, week 5): 0.0 Wt %
KF ([1]; 52% RH, week 1): 0.29 Wt % H2O
TGA Loss ([1]; 52% RH, week 1): 0.0 Wt %
KF ([1]; 52% RH, week 2): 0.16 Wt % H2O
TGA Loss ([1]; 52% RH, week 2): 0.0 Wt %
KF ([1]; 52% RH, week 3): 0.11 Wt % H2O
TGA Loss ([1]; 52% RH, week 3): 0.0 Wt %
KF ([1]; 75% RH, week 1): 0.12 Wt % H2O
TGA Loss ([1]; 75% RH, week 1): 0.0 Wt %
KF ([1]; 75% RH, week 2): 0.13 Wt % H2O
TGA Loss ([1]; 75% RH, week 2): 0.0 Wt %
KF ([1]; 75% RH, week 3): 0.19 Wt % H2O
TGA Loss ([1]; 75% RH, week 3): 0.0 Wt %
KF ([1]; 75% RH, week 4): <0.1 Wt % H2O
TGA Loss ([1]; 75% RH, week 4): 0.0 Wt %
KF ([1]; 75% RH, week 5): 0.3 Wt % H2O
TGA Loss ([1]; 75% RH, week 5): 0.0 Wt %
KF ([1]; 95% RH, week 1): 1.5 Wt % H2O
TGA Loss ([1]; 95% RH, week 1): 0.1 Wt %
KF ([1]; 95% RH, week 2): 3.2 Wt % H2O
KF ([1]; 95% RH, week 3): 3.7 Wt % H2O
KF ([1]; 95% RH, week 4): 3.5 Wt % H2O
TGA Loss ([1]; 95% RH, week 4): 1.5 Wt %
KF ([1]; 95% RH, week 5): 3.9 Wt % H2O
KF ([1]; starting point, week 0): 0.07 Wt % H2O
TGA Loss ([1]; starting point, week 0): 0.0 Wt %

CS(=O)(=O)O.O=C(Nc1cccc(Cl)c1)Nc1ncc(CCNc2ncnc3ccsc23)s1 [B]
DVS Result (hygroscopicity) [2]: change, low
KF ([1]; 0% RH, week 1): 1.4 Wt % H2O
KF ([1]; 0% RH, week 2): 3.4 Wt % H2O
KF ([1]; 0% RH, week 3): 3.6 Wt % H2O
KF ([1]; 0% RH, week 4): 3.0 Wt % H2O
KF ([1]; 0% RH, week 5): 3.4 Wt % H2O
KF ([1]; 20% RH, week 1): 3.3 Wt % H2O
KF ([1]; 20% RH, week 2): 3.7 Wt % H2O
KF ([1]; 20% RH, week 3): 3.6 Wt % H2O
KF ([1]; 20% RH, week 4): 3.4 Wt % H2O
KF ([1]; 20% RH, week 5): 3.5 Wt % H2O
KF ([1]; 52% RH, week 1): 3.0 Wt % H2O
KF ([1]; 52% RH, week 2): 3.6 Wt % H2O
KF ([1]; 52% RH, week 3): 3.7 Wt % H2O
KF ([1]; 52% RH, week 4): 3.3 Wt % H2O
KF ([1]; 52% RH, week 5): 3.6 Wt % H2O
KF ([1]; 75% RH, week 1): 3.4 Wt % H2O
KF ([1]; 75% RH, week 2): 3.4 Wt % H2O
KF ([1]; 75% RH, week 3): 2.4 Wt % H2O
KF ([1]; 75% RH, week 4): 3.3 Wt % H2O
KF ([1]; 95% RH, week 1): 3.2 Wt % H2O
KF ([1]; 95% RH, week 2): 3.5 Wt % H2O
KF ([1]; 95% RH, week 3): 4.6 Wt % H2O
TGA Loss ([1]; 95% RH, week 3): 3.2 Wt %
KF ([1]; 95% RH, week 4): 3.7 Wt % H2O
KF ([1]; 95% RH, week 5): 4.7 Wt % H2O
KF ([1]; starting point, week 0): 3.0 Wt % H2O

CS(=O)(=O)O.O=C(Nc1cccc(Cl)c1)Nc1ncc(CCNc2ncnc3ccsc23)s1 [E]
DVS Result (water uptake) ([2]; at 90% RH): change, 8.0 wt wt %

CS(=O)(=O)O.O=C(Nc1cccc(Cl)c1)Nc1ncc(CCNc2ncnc3ccsc23)s1 [Form A]
form conversion under humidity ([1]; 0, 25, 52, and 75% RH, five weeks): No form conversion
form conversion under humidity ([1]; 95% RH, two weeks): converted to Form B
form after reslurry [3]: remained unchanged
Approximate Solubility Conc. ([4]; Solvent AcOH, Temp RT): >17000 µg/mL
Soluble ([4]; Solvent AcOH, Temp RT): Yes
Approximate Solubility Conc. ([4]; Solvent Acetone, Temp 55): <370 µg/mL
Soluble ([4]; Solvent Acetone, Temp 55): No
Approximate Solubility Conc. ([4]; Solvent DCM, Temp 55): <430 µg/mL
Soluble ([4]; Solvent DCM, Temp 55): No
Approximate Solubility Conc. ([4]; Solvent DMA, Temp RT): >28000 µg/mL
Soluble ([4]; Solvent DMA, Temp RT): Yes
Approximate Solubility Conc. ([4]; Solvent DMF, Temp RT): >9000 µg/mL
Soluble ([4]; Solvent DMF, Temp RT): Yes
Approximate Solubility Conc. ([4]; Solvent Dioxane, Temp 55): <280 µg/mL
Soluble ([4]; Solvent Dioxane, Temp 55): No
Approximate Solubility Conc. ([4]; Solvent EtOAc, Temp 55): <250 µg/mL
Soluble ([4]; Solvent EtOAc, Temp 55): No
Approximate Solubility Conc. ([4]; Solvent EtOH, Temp 55): ~630 µg/mL
Soluble ([4]; Solvent EtOH, Temp 55): Yes
Approximate Solubility Conc. ([4]; Solvent Formamide, Temp RT): >16000 µg/mL
Soluble ([4]; Solvent Formamide, Temp RT): Yes
Approximate Solubility Conc. ([4]; Solvent Heptane, Temp 55): <430 µg/mL
Soluble ([4]; Solvent Heptane, Temp 55): No
Approximate Solubility Conc. ([4]; Solvent IPA, Temp 55): <300 µg/mL
Soluble ([4]; Solvent IPA, Temp 55): Partially
Approximate Solubility Conc. ([4]; Solvent IPAc, Temp 55): <400 µg/mL
Soluble ([4]; Solvent IPAc, Temp 55): No
Approximate Solubility Conc. ([4]; Solvent MEK, Temp 55): <480 µg/mL
Soluble ([4]; Solvent MEK, Temp 55): No
Approximate Solubility Conc. ([4]; Solvent MTBE, Temp 55): <200 µg/mL
Soluble ([4]; Solvent MTBE, Temp 55): No
Approximate Solubility Conc. ([4]; Solvent MeCN, Temp 55): <420 µg/mL
Soluble ([4]; Solvent MeCN, Temp 55): No
Approximate Solubility Conc. ([4]; Solvent MeOH, Temp 55): ~700 µg/mL
Soluble ([4]; Solvent MeOH, Temp 55): Yes
Approximate Solubility Conc. ([4]; Solvent NMP, Temp RT): >14000 µg/mL
Soluble ([4]; Solvent NMP, Temp RT): Yes
Approximate Solubility Conc. ([4]; Solvent THF, Temp 55): <320 µg/mL
Soluble ([4]; Solvent THF, Temp 55): No
Approximate Solubility Conc. ([4]; Solvent Toluene, Temp 55): <330 µg/mL
Soluble ([4]; Solvent Toluene, Temp 55): No
Approximate Solubility Conc. ([4]; Solvent Water, Temp 55): <280 µg/mL
Soluble ([4]; Solvent Water, Temp 55): No
solubility ([4]; in DMF, NMP, DMA, formamide, AcOH): soluble
solubility ([4]; in THF, EtOAc, MeCN, acetone, MEK, IPA, water, dioxane, MTBE, IPAc, heptane, CH2Cl2 and toluene): poor solubility
solubility ([4]; in methanol and ethanol): sparingly soluble

CS(=O)(=O)O.O=C(Nc1cccc(Cl)c1)Nc1ncc(CCNc2ncnc3ccsc23)s1 [Form B]
form conversion under humidity ([1]; all humidity chambers, five weeks): No form conversion

CS(=O)(=O)O.O=C(Nc1cccc(Cl)c1)Nc1ncc(CCNc2ncnc3ccsc23)s1 [G]
DVS Result (hygroscopicity) [2]: change, low

CC(=O)O[C@@]12CO[C@@H]1C[C@H](O)[C@@]1(C)C(=O)[C@H](O)C3=C(C)[C@@H](OC(=O)[C@H](O)[C@@H](NC(=O)OC(C)(C)C)c4ccccc4)C[C@@](O)([C@@H](OC(=O)c4ccccc4)[C@H]21)C3(C)C [docetaxel]
interaction with Compound 1 in cell count assay [5]: conditional synergies

Nc1ccn([C@@H]2O[C@H](CO)[C@@H](O)C2(F)F)c(=O)n1 [gemcitabine]
interaction with Compound 1 in cell count assay [5]: conditional synergies

CC[C@]1(O)C[C@H]2CN(CCc3c([nH]c4ccccc34)[C@@](C(=O)OC)(c3cc4c(cc3OC)N(C=O)[C@H]3[C@@](O)(C(=O)OC)[C@H](OC(C)=O)[C@]5(CC)C=CCN6CC[C@]43[C@@H]65)C2)C1 [vincristine]
interaction with Compound 1 in cell count assay [5]: conditional synergies
interaction with Compound 1, co-dosed [6]: Statistically significant synergy
